Columns and labels:
α7 integrin = assay: FDG based β-galactosidase fluorescent assay (reporter for α7 expression); format: cell-based, mouse; conditions: 2 mM VPA, 48 hours, α7+/− myotubes from day two of differentiation
Method: The α7^+/− mice were derived as reported in Flintoff-Dye, et al. Role for the alpha7beta1 integrin in vascular development and integrity, Dev. Dyn. 234:11-21 (2005). These mice were engineered to contain the LacZ gene driven by the α7 integrin promoter. Skeletal muscles from the hind limbs (including gastrocnemius-soleus, quadriceps and tibialis anterior) of a 3-week old α7^+/− mouse were removed under sterile conditions, finely minced in Hank's balanced salt solution (HBSS) and incubated in 5 ml of enzyme solution I consisting of 1.5 U/ml collagenase D (0.15 U/mg powder, from Roche Diagnostics, Indianapolis, Ind.), 2.4 U/ml dispase II (neutral protease, grade II, 0.8 U/mg powder, from Roche Diagnostics) and 2.5 mM calcium chloride for 30 minutes at 37° C. with trituration every 5 minutes. The supernatant was decanted into 5 ml of 20% fetal bovine serum (FBS) (Biomeda Corporation, Foster City, Calif.) in HBSS. Enzyme solution II consisting of 0.6 mg/ml trypsin (stock solution 0.5%, from Invitrogen) in HBSS was added to the remaining muscle fragments, incubated for 30 minutes as above, and the cell suspensions were pooled. […] The fluorescence in each well was quantified using an Analyst plate reader (Molecular Devices, Sunnyvale, Calif.).

Akt = assay: Western blotting of activated and total Akt in α7+/− myotubes; format: cell-based, mouse
Method: α7^+/− myogenic cells were cultured on 1% gelatin-coated plastic plates in Ham's F-10 growth medium (20% FBS, 0.5% chick embryo extract, 5 ng/ml bFGF, 2 mM glutamine, 100 U/ml penicillin and 100 μg/ml streptomycin). After six passages, cells were grown in DMEM containing 20% FBS, 0.5% chick embryo extract, 2 mM glutamine, 100 U/ml penicillin and 100 μg/ml streptomycin. Differentiation was induced by switching the medium to DMEM containing 2% horse serum and antibiotics when cells attained 90% confluence. […] Wortmannin was used at 100 nM and added fresh every 24 hours.
To test whether Akt activation by VPA in α7^+/− myotubes is dependent on PI3K, α7^+/− cells were differentiated for 48 hours and treated for 72 hours with 2 mM VPA with or without 100 nM Wortmannin. Fresh drugs were added every 24 hours. Phase-contrast micrographs of the cultures were captured at the end of 72 hours of treatment. To determine status of Akt activation in the cultures, α7^+/− myotubes were treated as above and protein extracts were made at the end of 72 hours of treatment using a 2% Triton X-100 extraction buffer (see below). Immunoblotting for phospho- and total Akt were done as detailed below.
Cell lysates of differentiating cells on 60 mm dishes were prepared as follows: the cells were washed twice with PBS and 200 μl Triton X-100 lysis buffer (2% Triton X-100, 20 mM Tris-Cl, pH 7.4, 150 mM NaCl, 1 mM EDTA, 1 mM EGTA, 2.5 mM NaPPi, 1 mM β-glycerophosphate, 1 mM sodium vanadate, 1:200 Protease Inhibitor Cocktail (EMD Chemicals, San Diego, Calif.) and 1 mM PMSF) were added. The cells were scraped and transferred into Eppendorf tubes, the cell suspensions were triturated and centrifuged at 8000×g at 4° C. for 10 minutes, and the supernatants were collected. Lysates from mouse skeletal muscle were prepared as follows: the quadriceps muscles were dissected out, snap-frozen in liquid nitrogen and pulverized using a mortar and pestle. The powdered muscles were collected in Eppendorf tubes, 500 μl of Triton X-100 lysis buffer were added, rotated at 4° C. for 30 minutes, centrifuged at 8000×g for 10 minutes and the supernatants were collected. Protein concentrations were determined by the Bradford assay. SDS extracts of muscle were made by boiling powdered muscle in extraction buffer (100 mM Tris-Cl, pH 8.0, 10% SDS, 10 mM EDTA and 10% glycerol) for 10 minutes, vortexing vigorously, and centrifuging at 8000×g for 10 minutes. The supernatants were collected and protein concentrations were determined spectrophotometrically at OD260 and OD280. SDS-PAGE was carried out using 50 μg of protein for each sample and separated proteins were transferred to nitrocellulose membranes. For western blotting using antibodies against signaling proteins, membranes were blocked in 5% BSA in TBST for 2 hours at room temperature. For all other blots, incubations were done in 5% milk in TBST overnight at 4° C. The membranes were incubated overnight at 4° C. with primary antibodies diluted 1:1000 in 1% BSA in TBST. After washing in 1% BSA in TBST, blots were incubated for 1 hour in HRP-conjugated secondary antibodies diluted 1:5000 in 1% BSA in TBST. Blots were processed using the ECL kit (Amersham Biosciences, Piscataway, N.J.) and bands were visualized with Kodak Biomax MR film (Kodak, Rochester, N.Y.). ImageQuant analysis software (Molecular Dynamics, Sunnyvale, Calif.) was used to quantify band intensity.

`CCCC(CCC)C(=O)O` [VPA, valproic acid] was tested, and the “β-galactosidase activity (reporter for α7 expression), highest level” value (α7 integrin) was 1.4 fold, the “levels of activated Akt, time course” value (Akt; 2 mM VPA daily, extracts every 24 hours up to 144 hours) was “higher levels of activated Akt at all time-points” and the “concentration of maximal Akt activation” value (Akt; 1 hour exposure) was 30 mM. For the same compound, the “levels of activated Akt” value (Akt; VPA for 48 or 72 hours) was “higher levels”, the “higher levels of Akt in VPA treated cultures” value (Akt; beyond 96 hours) was 2 to 3 fold and the “time to Akt activation” value (Akt; various concentrations of VPA, two-day old differentiating cultures) was at most 1 h.
